{"source": "patent US7745465B2", "about": "“Method of enhancing cellular production of molecular chaperone, hydroxylamine derivatives useful for enhancing the chaperone production and the preparation thereof” (CytRx Corporation, priority 1995, dated 2010)", "key": {"[1]": {"system": "WEHI mouse fibrosarcoma cell", "experiment": "Serum deprivation, cell viability by MTT test (WEHI)", "format": "cell-based", "settings": "serum deprived WEHI, 10^−5 M, control 100%, serum deprived alone 74.8%, read-out: relative cell viability", "procedure": "Experiments were carried out using WEH1 mouse fibrosarcoma and H9c2 rat heart muscle cell lines divided into three groups: • control (10% FCS fetal calf serum) • serum deprived • N-[2-hydroxy-3-(1-piperidinyl)propoxy]-3-pyridinecarboximidoyl chloride maleate (10^−5 M) treated and serum deprived 1.2(i) Serum Deprivation and MTT Test\nWe have screened various cell lines, drug concentrations, pretreatment and deprivation times and we have found the most appropriate conditions as follows: […] H9c2 rat heart muscle cell (n=6) and WEHI mouse fibrosarcoma cell (n=7) have been plated on 24 well plates in 10% FCS DMEM (Dulbecco modified Eagle's medium) and incubated for 2 hours at 37 C, 5% CO2. Medium has been discarded and replaced by 10% FCS DMEM containing 10^−5 M N-[2-hydroxy-3-(1-piperidinyl)propoxy ]-3-pyridinecarboximidoyl chloride maleate. […] Cell viability was measured by MTT test based on the method of Plumb et al. (Cancer Res. 49: 4435-4444 (1989)) The tetrazolium salt method involving conversion of MTT (3-(4,5-dimethylthiazol-2yl)-2,5-diphenyltetrazolium bromide) to colored formazan by alive cells, served as an indirect measurement of cell viability. […] O.D. of the plates was read at 570 nm on an ELISA plate reader (Labsystems Multiskan Biochromatic type:348). […] Relative cell viability was calculated defining control group as 100%."}, "HSP72": {"system": "HSP72", "experiment": "Heat stress induced HSP72 production in 3T3 cells", "format": "cell-based, mouse", "settings": "10^−5 M", "in_short": "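Mouse 3T3 fibroblasts in MEM monolayer were heat-stressed 30 min at 43° C, with test compounds at 10^−5 M given 15 min before or 100 min after stress. HSP72 detected by immunoblot with SPA 810 primary and HRP secondary antibodies, quantified by densitometry.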"}}, "data": [{"smiles": "O=C(O)/C=C\\C(=O)O.OC(CON=C(Cl)c1cccnc1)CN1CCCCC1", "note": "(stereo not drawn) [N-[2-hydroxy-3-(1-piperidinyl)-propoxy]3-pyridinecarboximidoyl chloride maleate]", "values": [{"measurement": "viability at 10 µM", "setting": "[1]", "value": 93, "unit": "%"}, {"measurement": "HSP72 level relative to the stress exposed control", "setting": "HSP72; treatment 15 min. before 30 min. 43° C. heat stress", "value": "+++ (>100%)"}, {"measurement": "HSP72 level relative to the stress exposed control", "setting": "HSP72; treatment 100 min. after 30 min. 43° C. heat stress", "value": "0 (0 indicates that the treatment altered by ±20% the stress induced hsp72 level in the cells)"}]}]}
